The values below come from patent US9775883B2, “Methods, systems, and compositions for promoting recovery of peripheral neuropathy” (HENRY FORD HEALTH SYSTEM, priority 2011, dated 2017).

The nature of this data set: Effect of TB4 on bodyweight of db/db mice. Format: in vivo, mouse. Particulars: for Weight: db/db mice, mean ± SE. As for the experimental part:
All experimental procedures were carried out in accordance with NIH Guide for the Care and Use of Laboratory Animals and approved by the institutional Animal Care and Use Committee of Henry Ford Hospital. Male BKS.Cg-m+/+Lepr^db/J(db/db) mice (Jackson Laboratories, Bar Harbor, Me.) aged 20 weeks were used. Age-matched heterozygotes mice (db/m), a non-penetrant genotype (Jackson Laboratories), were used as the control animals.
db/db mice at age 20 weeks were treated with Tβ4 at a dose of 6 mg/kg or 24 mg/kg (RegeneRx, Inc, intraperitoneal injection, i.p.), every 3 days for 4 weeks (n=10/group). db/db mice (n=10/group) at the same age treated with same volume of saline were used as a control group. Age-matched db/m mice treated with Tβ4 (6 mg/kg i.p. every 3 days, n=10/group) or saline (n=10/group) were used as additional control groups. All mice were sacrificed 8 weeks after the initial treatment. Doses of Tβ4 were selected based on published studies^13.

SMILES strings stand for the structures.

In the case of `CC[C@H](C)[C@H](NC(=O)[C@H](CCC(=O)O)NC(=O)[C@H](C)NC(=O)[C@H](CCSC)NC(=O)[C@H](CC(=O)O)NC(=O)[C@@H]1CCCN1C(=O)[C@H](CCCCN)NC(=O)[C@H](CC(=O)O)NC(=O)[C@H](CO)NC(C)=O)C(=O)N[C@@H](CCC(=O)O)C(=O)N[C@@H](CCCCN)C(=O)N[C@@H](Cc1ccccc1)C(=O)N[C@@H](CC(=O)O)C(=O)N[C@@H](CCCCN)C(=O)N[C@@H](CO)C(=O)N[C@@H](CCCCN)C(=O)N[C@@H](CC(C)C)C(=O)N[C@@H](CCCCN)C(=O)N[C@@H](CCCCN)C(=O)N[C@H](C(=O)N[C@@H](CCC(=O)O)C(=O)N[C@H](C(=O)N[C@@H](CCC(N)=O)C(=O)N[C@@H](CCC(=O)O)C(=O)N[C@@H](CCCCN)C(=O)N[C@@H](CC(N)=O)C(=O)N1CCC[C@H]1C(=O)N[C@@H](CC(C)C)C(=O)N1CCC[C@H]1C(=O)N[C@@H](CO)C(=O)N[C@@H](CCCCN)C(=O)N[C@@H](CCC(=O)O)C(=O)N[C@H](C(=O)N[C@H](C(=O)N[C@@H](CCC(=O)O)C(=O)N[C@@H](CCC(N)=O)C(=O)N[C@@H](CCC(=O)O)C(=O)N[C@@H](CCCCN)C(=O)N[C@@H](CCC(N)=O)C(=O)N[C@@H](C)C(=O)NCC(=O)N[C@@H](CCC(=O)O)C(=O)N[C@@H](CO)C(=O)O)[C@@H](C)CC)[C@@H](C)O)[C@@H](C)O)[C@@H](C)O` [Tβ4, thymosin beta 4], the Weight runs as follows: (TB4 6 mg/kg i.p. every 3 days for 4 weeks, 0 w (before the treatment)) 59.5 ± 0.9 g; (TB4 6 mg/kg, 2 w) 57.1 ± 1.1 g; (TB4 6 mg/kg, 4 w) 56.2 ± 1.2 g; (TB4 6 mg/kg, 6 w) 53.7 ± 1.5 g; (TB4 6 mg/kg, 8 w) 53.0 ± 1.7 g; (TB4 24 mg/kg i.p. every 3 days for 4 weeks, 0 w (before the treatment)) 58.9 ± 1.1 g. Further, the Weight by setting is: (TB4 24 mg/kg, 2 w) 58.1 ± 1.2 g; (TB4 24 mg/kg, 4 w) 55.7 ± 1.5 g; (TB4 24 mg/kg, 6 w) 56.0 ± 1.4 g; (TB4 24 mg/kg, 8 w) 54.8 ± 1.6 g. The animal body weight entry (db/db mouse treated with Tβ4 (Table 1)) is “did not significantly alter”.
